Values of other authors, collected in publication PMC9056484 (Advances in Therapy, 2022).
pKi: −log10 of the molar value. Where two headings read alike, the source gives them in different places.

Assays:
early PD patients [1] = settings: higher doses of pramipexole in early PD
[2] = tested on: early Parkinson's disease patients; settings: pramipexole 1.5 mg/day, 9 months
dopamine D3 receptor = settings: read-out: Ki, D3 receptor
early PD patients [3] = tested on: early PD patients
[4] = tested on: early Parkinson's disease patients
[5] = tested on: Parkinson's disease patients; settings: pramipexole monotherapy
[6] = not given; remark: listed apart in the source
[7] = tested on: early Parkinson disease patients
human albumin = settings: concentration range 1–100 ng/ml
[8] = tested on: early Parkinson disease patients; settings: rasagiline 1 mg/day, Week 26
[9] = not given; remark: listed apart in the source
[10] = tested on: Parkinson's disease patients; settings: for effects on clinical progression (in words): delayed-start design trial
[11] = Pramipexole 0.5 mg BID, n = 81, PRAMI-BID
[12] = Pramipexole 0.5 mg TID, n = 80, PRAMI-BID
[13] = Pramipexole 0.75 mg BID, n = 73, PRAMI-BID
[14] = Pramipexole 1.5 mg, n = 54, STEP-UP
[15] = Pramipexole groups combined (1.5–6 mg), N = 213, STEP-UP

NC1CCc2ccccc21 (centres unmarked) [1-aminoindan]
MAO-B inhibition (in words) (MAO-B): weak MAO-B inhibitor

CCCN[C@H]1CCc2nc(N)sc2C1 [Pramipexole]
placebo-adjusted changes from baseline in ESS score (early PD patients [1]): 1.0–2.1 | improvement of Total UPDRS scores versus placebo [2]: 4.8 points | pKi (dopamine D3 receptor): 9.30 | incidence of somnolence (early PD patients [3]; pramipexole pivotal studies in early PD): 22% | patients with hallucinations (early PD patients [3]; pramipexole up to 4.5 mg/day, early PD pivotal trials): 16.5% | Adverse event: Abnormal dreams [4, 11]: 3 (3.7) | Adverse event: Constipation [4, 11]: 8 (9.9) | Adverse event: Dizziness [4, 11]: 9 (11.1) | Adverse event: Fatigue [4, 11]: 6 (7.4) | Adverse event: Headache [4, 11]: 7 (8.6) | Adverse event: Insomnia [4, 11]: 3 (3.7) | Adverse event: Nausea [4, 11]: 18 (22.2) | Adverse event: Peripheral edema [4, 11]: 2 (2.5) | Adverse event: Somnolence [4, 11]: 14 (17.3) | Adverse event: Abnormal dreams [4, 12]: 5 (6.3) | Adverse event: Constipation [4, 12]: 5 (6.3) | Adverse event: Dizziness [4, 12]: 9 (11.3) | Adverse event: Fatigue [4, 12]: 4 (5.0) | Adverse event: Headache [4, 12]: 4 (5.0) | Adverse event: Insomnia [4, 12]: 6 (7.5) | Adverse event: Nausea [4, 12]: 15 (18.8) | Adverse event: Peripheral edema [4, 12]: 3 (3.8) | Adverse event: Somnolence [4, 12]: 20 (25.0) | Adverse event: Abnormal dreams [4, 13]: 2 (2.7) | Adverse event: Constipation [4, 13]: 7 (9.6) | Adverse event: Dizziness [4, 13]: 5 (6.8) | Adverse event: Fatigue [4, 13]: 7 (9.6) | Adverse event: Headache [4, 13]: 6 (8.2) | Adverse event: Insomnia [4, 13]: 11 (15.1) | Adverse event: Nausea [4, 13]: 11 (15.1) | Adverse event: Peripheral edema [4, 13]: 4 (5.5) | Adverse event: Somnolence [4, 13]: 16 (21.9) | Effects on PDQ-39 Total scores versus placebo (in words) ([4]; pramipexole 1.0 mg/day (0.5 mg BID), P = 0.32): not significantly different from placebo | PDQ-39 Total scores, treatment effect vs. placebo ([4]; pramipexole 1.5 mg/day (0.75 mg BID or 0.5 mg TID), P ≤ 0.05): 2.1 points | placebo-adjusted improvements in Total UPDRS ([4]; pramipexole 1–1.5 mg/day, Week 12): 4.4–4.7 points | absolute oral bioavailability: > 90% | absorbed dose eliminated unchanged (almost exclusively by the kidneys): > 90% | disease-modifying effect (in words) [5]: did not find evidence of a disease-modifying effect | protein bound [6]: < 20% | affinity for D1 receptors, times lower than that to D3 receptors (D1 receptors): around 200,000 times | Adverse event: Confusion [7, 14]: 3 (5.6) | Adverse event: Constipation [7, 14]: 4 (7.4) | Adverse event: Dizziness [7, 14]: 10 (18.5) | Adverse event: Fatigue [7, 14]: 4 (7.4) | Adverse event: Hallucination [7, 14]: 4 (7.4) | Adverse event: Headache [7, 14]: 5 (9.2) | Adverse event: Insomnia [7, 14]: 2 (3.7) | Adverse event: Nausea [7, 14]: 9 (16.7) | Adverse event: Somnolence [7, 14]: 9 (16.7) | Adverse event: Confusion [7, 15]: 9 (4.2) | Adverse event: Constipation [7, 15]: 23 (10.8) | Adverse event: Dizziness [7, 15]: 39 (18.3) | Adverse event: Hallucination [7, 15]: 14 (6.6) | Adverse event: Headache [7, 15]: 24 (11.3) | Adverse event: Insomnia [7, 15]: 16 (7.5) | Adverse event: Nausea [7, 15]: 42 (19.7) | Adverse event: Somnolence [7, 15]: 58 (27.2) | patients with hallucinations ([7]; pramipexole 1.5 mg, within 10 weeks): > 5% | improvement of Total UPDRS scores versus placebo ([7]; pramipexole 1.5 mg/day, Week 10): 5.2 points

C#CCN[C@@H]1CCc2ccccc21 [Rasagiline, N-propargyl-1-(R)-aminoindan]
mean extent of binding to human albumin (human albumin): 61–63% | MAO-B inhibition (in words) (MAO-B): potent and irreversible inhibitor of MAO-B | improvement of Total UPDRS scores versus placebo [8]: 4.2 points | absolute bioavailability [9]: about 36% | time to peak plasma concentration (Cmax) [9]: approximately 1 hour | effects on clinical progression (in words) ([10]; rasagiline 1.0 mg): statistically significant effects on clinical progression | improvement of Total UPDRS scores versus placebo ([10]; rasagiline 1 mg/day, ~ Week 36): 3.0 points | effects on clinical progression (in words) ([10]; rasagiline 2.0 mg): but not 2.0 mg, had statistically significant effects
